We go through 31 molecules from patent publication US4708966A, “Novel anti-inflammatory agents, pharmaceutical compositions and methods for reducing inflammation” (The Procter & Gamble Company, priority 1986, dated 1987).

In assay [1] the test system is carrageenan rat paw edema. The assay can be described thus: Carrageenan Rat Paw Edema Test. The assay is classed as in vivo, Male Sprague-Dawley rats. The note with it: for ED35: 4 h, oral, by regression analysis, read-out: ID35; for inhibition in vivo at 100 mg/kg: po, 100 mg/kg P.O., paw volume 4 h after carrageenan, vs control group, read-out: Percent Inhibiton at 100 mg/kg dose P.O. How it is done:
Carrageenan Rat Paw Edema Test
Male Sprague-Dawley rats (Charles River Laboratories) are weighed and food fasted overnight. The animals are then divided into four to six groups of six animals each according to body weights (average about 145 g) so that each group has about the same average body weight (within 10 g).
The following morning animals are dosed with the test compound and then placed in individual cages. For oral dosing, the drug is suspended in 0.5% methyl cellulose with 2% Tween 80, and delivered via stomach tube in a 5 ml volume.
Paw volumes (0 time) are determined on both hind paws with a mercury displacement device equipped with a transducer and digitizer. One hour after dosing the test compound, the animals are placed in a plastic restrainer and 50 ul of a 1% (w/w) carrageenan solution in 0.9% saline is injected into the ventral surface of the left rear paw. Four hours after the carrageenan injection, the paw volumes are again determined.
The results are expressed as percent inhibition of the mean paw volume of the test group relative to the control group. Statistical differences are determined by one way analysis of variance. ID35 values are determined by regression analysis.

Assay [2] concerns oxazolone-induced inflamed mouse ear. Put plainly: Oxazolone-Induced Inflamed Mouse Ear Test (Ox-IMET). In kind it is in vivo, Adult male Cox ICR mice. The note with it: topical, 25 ul of 10% in ethanol, 24 h after challenge, vs control group, read-out: Percent Inhibition. Here is the method: Oxazolone-Induced Inflamed Mouse Ear Test ("Ox-IMET")
Adult male Cox ICR mice, 25-35 g, are sensitized by applying 3% oxazolone in olive oil to the clipped abdomen of each animal using a cotton swab. One week later, the mice are challenged on the inner surface of the left ear with 3% oxazolone in aceotone. At the same time 25 ul of the test compound (10% in ethanol) is applied to the outer surface of the same ear. Twenty four hours after the challenge, the animals are sacrificed by cervical dislocation and both ears are removed. A 5 mm punch biopsy is removed from both ears and is weighed to the nearest 0.1 mg on a Cahn electrobalance. Ten animals are used per group. The study usually consists of 4 to 6 groups, of which one is a control group which is challenged on the left ear, but is not treated with a test compound. The results are expressed as percent inhibition of the swelling response compared to the control group. Statistical tests for significance between groups are made using a one way analysis of variance of the ear weight differences.

Assay [3] concerns arachidonic acid-induced inflamed mouse ear. The assay can be described thus: Arachidonic Acid-Induced Inflamed Mouse Ear Test. In kind it is in vivo, Adult male Cox ICR mice. The note with it: for inhibition in vivo at 50 µg/ear: Mus musculus, 50 ug/ear topical, 3 hours, read-out: Percent Inhibition at 50 ug/ear topical dose; for ID50: topical, by regression analysis. Here is the method: Arachidonic Acid-Induced Inflamed Mouse Ear Test
All drugs are dissolved with arachidonic acid in the vehicle. At the end of 3 hours, animals are sacrificed by cervical dislocation and both ears are removed. A 5 mm punch biopsy is removed from both ears and is weighed to the nearest 0.1 mg on a Cahn electrobalance. Ten animals are used per group. The study usually consists of 4 to 6 groups, of which one is a control group which is treated on the left ear with only arachidonic acid in the vehicle. The results are expressed as percent inhibition of the swelling response compared to the control group. Statistical tests for significance between groups are made using a one way analysis of variance of the ear weight differences. ID50 values are determined by regression analysis.

For `C#CC(=O)c1cc(C(C)(C)C)c(O)c(C(C)(C)C)c1` [Compound 1, 4-propynoyl-2,6-di-t-butylphenol], in assay [1], the ED35 was 40 mg/kg and the inhibition in vivo at 100 mg/kg was 65%.
In the case of `C#CC(O)c1cc(C(C)(C)C)c(O)c(C(C)(C)C)c1` (stereo not drawn) [Compound 2, 4-(1'-hydroxy-2'-propynyl)-2,6-di-t-butylphenol], in assay [1], the ED35 stood at 46.8 mg/kg and the inhibition in vivo at 100 mg/kg worked out at 75.6%. The inhibition in vivo at 10 % in assay [2] turned out to be 27.3%.
For the molecule `C#CCC(=O)c1cc(C(C)(C)C)c(O)c(C(C)(C)C)c1` [Compound 3, 4-(3'-butynoyl)-2,6-di-t-butylphenol], in assay [1], the ED35 is 9.9 mg/kg and the inhibition in vivo at 100 mg/kg turned out to be 66.9%. For the same molecule, in assay [3], the inhibition in vivo at 50 µg/ear amounted to 61.6% and the ID50 is 22.7 ug/ear.
With `C=C=CC(=O)c1cc(C(C)(C)C)c(O)c(C(C)(C)C)c1` [Compound 4, 4-butadienoyl-2,6-di-t-butylphenol], the inhibition in vivo at 100 mg/kg in assay [1] came to 64.9%. For the same molecule, in assay [3], the inhibition in vivo at 50 µg/ear is 79.6% and the ID50 was found to be 6.6 ug/ear.
Consider `C#CCCC(=O)c1cc(C(C)(C)C)c(O)c(C(C)(C)C)c1` [Compound 5, 4-(4'-pentynoyl)-2,6-di-t-butylphenol], for which, in assay [1], the ED35 was 8.1 mg/kg and the inhibition in vivo at 100 mg/kg amounted to 61.3%. Further, the inhibition in vivo at 10 % in assay [2] is 25.3%.
The like results for `C=CCCC(=O)c1cc(C(C)(C)C)c(O)c(C(C)(C)C)c1` [Compound 6, 4-(4'-pentenoyl)-2,6-di-t-butylphenol] were, in that order, 3.3 mg/kg, 71.2% and 46%.
For the molecule `C#CCC(C(=O)c1cc(C(C)(C)C)c(O)c(C(C)(C)C)c1)C(OC)OC` (stereo not drawn) [Compound 7, 4-(2'-dimethoxymethyl-4'-pentynoyl)-2,6-di-t-butylphenol], the inhibition in vivo at 100 mg/kg in assay [1] is 53.6%. Moreover, the inhibition in vivo at 10 % in assay [2] was found to be 40.9%.
The corresponding values for `C#CCC(C)(C)C(=O)c1cc(C(C)(C)C)c(O)c(C(C)(C)C)c1` [Compound 8, 4-(2', 2'-dimethyl-4'-pentynoyl)-2,6-di-t-butylphenol] are 50.4% and 38.3%.
The like results for `C#CC(C)(C)CC(=O)c1cc(C(C)(C)C)c(O)c(C(C)(C)C)c1` [Compound 9, 4-(3',3'-dimethyl-4'-pentynoyl)-2,6-di-t-butylphenol] were, in that order, 41.7% and 23.2%.
As to `C#CC(=O)CCc1cc(C(C)(C)C)c(O)c(C(C)(C)C)c1` [Compound 10, 4-(4'-pentyn-3'-one)-2,6-di-t-butylphenol], in assay [1], the ED35 came out at 24.5 mg/kg and the inhibition in vivo at 100 mg/kg worked out at 92.2%. The inhibition in vivo at 50 µg/ear in assay [3] is 64.9%.
As to `C=CCCCC(=O)c1cc(C(C)(C)C)c(O)c(C(C)(C)C)c1` [Compound 12, 4-(5'-hexenoyl)-2,6-di-t-butylphenol], in assay [1], the ED35 stood at 11.4 mg/kg and the inhibition in vivo at 100 mg/kg turned out to be 59.9%. In assay [2], the inhibition in vivo at 10 % was 29.7%.
Regarding `C#CCCCC(O)c1cc(C(C)(C)C)c(O)c(C(C)(C)C)c1` (stereo not drawn) [Compound 14, 4-(1'-hydroxy-5'-hexynyl)-2,6-di-t-butylphenol], in assay [1], the ED35 stood at 30 mg/kg and the inhibition in vivo at 100 mg/kg came to 54.4%.
Regarding `C#CCCCCc1cc(C(C)(C)C)c(O)c(C(C)(C)C)c1` [Compound 15, 4-(5'-hexynyl)-2,6-di-t-butylphenol], in assay [1], the ED35 was 55.2 mg/kg and the inhibition in vivo at 100 mg/kg stood at 75.7%. In assay [2], the inhibition in vivo at 10 % stood at 39.6%.
Take `C#CCCCC(=C)c1cc(C(C)(C)C)c(O)c(C(C)(C)C)c1` [Compound 16, 4-(1'-methylidene-5'-hexynyl)-2,6-di-t-butylphenol]: the inhibition in vivo at 100 mg/kg in assay [1] is 25.7%. Besides, the inhibition in vivo at 10 % in assay [2] stood at 30.3%.
On to `C#CC[C@H](C)CC(=O)c1cc(C(C)(C)C)c(O)c(C(C)(C)C)c1` [Compound 17, 4-((S)-(-)-3'-methyl-5'-hexynoyl)-2,6-di-t-butylphenol], for which, in assay [1], the ED35 worked out at 4.4 mg/kg and the inhibition in vivo at 100 mg/kg stood at 75.5%. Also, the inhibition in vivo at 10 % in assay [2] stood at 59.5%.
The like results for `C#CC[C@@H](C)CC(=O)c1cc(C(C)(C)C)c(O)c(C(C)(C)C)c1` [Compound 18, 4-((R)-(+)-3'-methyl-5'-hexynoyl)-2,6-di-t-butylphenol] were, in that order, 2.5 mg/kg, 72% and 54.5%.
For the molecule `C#CCCCC(=O)c1cc(C(C)(C)C)cc(C(C)(C)C)c1` [Compound 19, 1-(5'-hexynoyl)-3,5-di-t-butylbenzene], in assay [1], the ED35 was 45.3 mg/kg and the inhibition in vivo at 100 mg/kg stood at 71.7%.
The like results for `C#CCCCC(=O)c1cc([Si](C)(C)C)c(O)c([Si](C)(C)C)c1` [Compound 20, 4-(5'-hexynoyl)-2,6-bis-trimethylsilylphenol] were, in that order, 34.2 mg/kg and 73.1%.
The like results for `C#CCCCC(=O)c1cc([Si](C)(C)C)cc([Si](C)(C)C)c1` [Compound 21, 1-(5'-hexynoyl)-3,5-bis-trimethylsilylbenzene] were, in that order, around 90 mg/kg and 41.7%.
Turning to `C#CCCCC(=O)c1cc(C(F)(F)F)cc(C(F)(F)F)c1` [Compound 22, 1-(5'-hexynoyl)-3,5-bis(trifluoromethyl)benzene], the inhibition in vivo at 100 mg/kg in assay [1] amounted to 47%.
Consider `C#CCCCCC(=O)c1cc(C(C)(C)C)c(O)c(C(C)(C)C)c1` [Compound 23, 4-(6'-heptynoyl)-2,6-di-t-butylphenol], for which, in assay [1], the ED35 stood at 17.4 mg/kg and the inhibition in vivo at 100 mg/kg stood at 67.9%.
As to `C#CCCC(=O)CCc1cc(C(C)(C)C)c(O)c(C(C)(C)C)c1` [Compound 24, 4-(6'-heptyn-3'-one)-2,6-di-t-butylphenol], the inhibition in vivo at 10 % in assay [2] amounted to 38.2%.
Same read-out and setting: as for `C#CCC(CC#C)C(=O)CCc1cc(C(C)(C)C)c(O)c(C(C)(C)C)c1` [Compound 25, 4-(4'-(2"-propynyl)-6'-heptyn-3'-one)-2,6-di-t-butylphenol], the figure is 40.4%.
`C#CCCCCCC(=O)c1cc(C(C)(C)C)c(O)c(C(C)(C)C)c1` [Compound 26, 4-(7'-octynoyl)-2,6-di-t-butylphenol]: in assay [1], the ED35 was determined as 110 mg/kg and the inhibition in vivo at 100 mg/kg was determined as 43.3%.
On to `C=CCCC(=O)/C=C/c1cc(C(C)(C)C)c(O)c(C(C)(C)C)c1` [Compound 28, 4-((E)-1',6'-heptadiene-3'-one)-2,6-di-t-butylphenol], for which, in assay [2], the inhibition in vivo at 10 % is 37.4%.
Regarding `COC(CC(=O)c1cc(C(C)(C)C)c(O)c(C(C)(C)C)c1)OC` [Compound 29, 4-(3',3'-dimethoxypropionyl)-2,6-di-t-butylphenol], in assay [1], the ED35 came to 28.2 mg/kg and the inhibition in vivo at 100 mg/kg stood at 70.7%.
For the molecule `CCOC(CC(=O)c1cc(C(C)(C)C)c(O)c(C(C)(C)C)c1)OCC` [Compound 31, 4-(3',3'-diethoxypropionyl)-2,6-di-t-butylphenol], in assay [3], the inhibition in vivo at 50 µg/ear was determined as 82.8% and the ID50 was found to be 15.3 ug/ear.
`CC(C)(C)c1cc(C(=O)CC2OCCS2)cc(C(C)(C)C)c1O` (stereo not drawn) [Compound 32, 4-(2'-(1",3"-oxathiolane)acetyl)-2,6-di-t-butylphenol]: the inhibition in vivo at 100 mg/kg in assay [1] amounted to 50.8%. In addition, the inhibition in vivo at 10 % in assay [2] was determined as 44.5%.
Regarding `COC(Cc1cc(C(C)(C)C)c(O)c(C(C)(C)C)c1)OC` [Compound 33, 4-(2',2'-dimethoxyethyl)-2,6-di-t-butylphenol], in assay [2], the inhibition in vivo at 10 % came out at 54.1%.
As to `COC(CC(=O)CCc1cc(C(C)(C)C)c(O)c(C(C)(C)C)c1)OC` [Compound 34, 4-(5',5'-dimethoxy-3'-pentanone)-2,6-di-t-butylphenol], in assay [1], the inhibition in vivo at 100 mg/kg came to 66.1%.
On the same count and under the same terms, as for `C#CCC(C)(C)CC(=O)c1cc(C(C)(C)C)c(O)c(C(C)(C)C)c1` [Compound 35, 4-(3',3'-dimethyl-5'-hexynoyl)-2,6-di-t-butylphenol], the figure is 61.1%.
